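Abbreviation: GI50, concentration required for 50% inhibition of growth. TGI: total growth inhibition.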
Assays:
Experiment in all cases: NCI-60 cell line screen, 384-well format; in the data active = GI50 below about 0.43 µM; inactive = the rest
K-562 leukemia = test system: K-562 leukemia
SF-295 CNS = test system: SF-295 CNS
OVCAR-8 ovarian = test system: OVCAR-8 ovarian
MCF7 breast = test system: MCF7 breast
OVCAR-5 ovarian = test system: OVCAR-5 ovarian
TK-10 renal = test system: TK-10 renal
HOP-92 NSCLC = test system: HOP-92 NSCLC
RXF 393 renal = test system: RXF 393 renal
HOP-62 NSCLC = test system: HOP-62 NSCLC
786-0 renal = test system: 786-0 renal
SK-MEL-28 melanoma = test system: SK-MEL-28 melanoma
SNB-19 CNS = test system: SNB-19 CNS
HT29 colon = test system: HT29 colon
MDA-MB-435 melanoma = test system: MDA-MB-435 melanoma
MDA-MB-468 breast = test system: MDA-MB-468 breast
RPMI-8226 leukemia = test system: RPMI-8226 leukemia
A498 renal = test system: A498 renal
IGROV1 ovarian = test system: IGROV1 ovarian
HL-60(TB) leukemia = test system: HL-60(TB) leukemia
OVCAR-4 ovarian = test system: OVCAR-4 ovarian
DU-145 prostate = test system: DU-145 prostate
LOX IMVI melanoma = test system: LOX IMVI melanoma
COLO 205 colon = test system: COLO 205 colon
SN12C renal = test system: SN12C renal
T-47D breast = test system: T-47D breast
HCT-15 colon = test system: HCT-15 colon
HS 578T breast = test system: HS 578T breast
PC-3 prostate = test system: PC-3 prostate
CAKI-1 renal = test system: CAKI-1 renal
M14 melanoma = test system: M14 melanoma
CCRF-CEM leukemia = test system: CCRF-CEM leukemia
NCI-H460 NSCLC = test system: NCI-H460 NSCLC
MOLT-4 leukemia = test system: MOLT-4 leukemia
EKVX NSCLC = test system: EKVX NSCLC
SR leukemia = test system: SR leukemia
BT-549 breast = test system: BT-549 breast
NCI/ADR-RES ovarian = test system: NCI/ADR-RES ovarian
OVCAR-3 ovarian = test system: OVCAR-3 ovarian
SNB-75 CNS = test system: SNB-75 CNS
HCC-2998 colon = test system: HCC-2998 colon
SK-MEL-5 melanoma = test system: SK-MEL-5 melanoma
ACHN renal = test system: ACHN renal
UACC-62 melanoma = test system: UACC-62 melanoma
NCI-H226 lung = test system: NCI-H226 lung
MALME-3M melanoma = test system: MALME-3M melanoma
A549 NSCLC = test system: A549 NSCLC
UO-31 renal = test system: UO-31 renal
SK-OV-3 ovarian = test system: SK-OV-3 ovarian
NCI-H522 lung = test system: NCI-H522 lung
SF-268 CNS = test system: SF-268 CNS
UACC-257 melanoma = test system: UACC-257 melanoma
NCI-H23 lung = test system: NCI-H23 lung
SF-539 CNS = test system: SF-539 CNS
MDA-MB-231 breast = test system: MDA-MB-231 breast
KM12 colon = test system: KM12 colon
NCI-H322M lung = test system: NCI-H322M lung
SW-620 colon = test system: SW-620 colon

C[C@@H]1OCC2(CCN(c3cnc(Sc4ccnc(N)c4Cl)c(N)n3)CC2)[C@@H]1N
> 100 µM: TGI (K-562 leukemia) | TGI (SF-295 CNS) | TGI (OVCAR-8 ovarian) | TGI (MCF7 breast) | TGI (OVCAR-5 ovarian) | TGI (TK-10 renal) | TGI (RXF 393 renal) | TGI (HOP-62 NSCLC) | TGI (786-0 renal) | TGI (SK-MEL-28 melanoma) | TGI (SNB-19 CNS) | TGI (HT29 colon) | TGI (MDA-MB-435 melanoma) | TGI (RPMI-8226 leukemia) | TGI (A498 renal) | TGI (IGROV1 ovarian) | TGI (HL-60(TB) leukemia) | TGI (OVCAR-4 ovarian) | TGI (DU-145 prostate) | TGI (LOX IMVI melanoma) | TGI (COLO 205 colon) | TGI (SN12C renal) | TGI (T-47D breast) | TGI (HCT-15 colon) | TGI (HS 578T breast) | TGI (PC-3 prostate) | TGI (CAKI-1 renal) | TGI (M14 melanoma) | TGI (CCRF-CEM leukemia) | TGI (NCI-H460 NSCLC) | TGI (MOLT-4 leukemia) | TGI (EKVX NSCLC) | TGI (BT-549 breast) | TGI (NCI/ADR-RES ovarian) | TGI (OVCAR-3 ovarian) | TGI (SNB-75 CNS) | TGI (HCC-2998 colon) | TGI (SK-MEL-5 melanoma) | TGI (ACHN renal) | TGI (UACC-62 melanoma) | TGI (NCI-H226 lung) | TGI (MALME-3M melanoma) | TGI (A549 NSCLC) | TGI (UO-31 renal) | TGI (SK-OV-3 ovarian) | TGI (NCI-H522 lung) | TGI (SF-268 CNS) | TGI (UACC-257 melanoma) | TGI (SF-539 CNS) | TGI (MDA-MB-231 breast) | TGI (KM12 colon) | TGI (NCI-H322M lung) | TGI (SW-620 colon)
active: GI50 (K-562 leukemia) 0.148 µM | GI50 (HOP-92 NSCLC) 0.0569 µM | GI50 (MDA-MB-468 breast) 0.0533 µM | GI50 (CAKI-1 renal) 0.426 µM | GI50 (NCI-H23 lung) 0.0797 µM | GI50 (NCI-H322M lung) 0.234 µM
0.355 µM: TGI (MDA-MB-468 breast)
44.2 µM: TGI (NCI-H23 lung)
inactive: GI50 (SF-295 CNS) > 100 µM | GI50 (OVCAR-8 ovarian) 44.3 µM | GI50 (MCF7 breast) > 100 µM | GI50 (OVCAR-5 ovarian) > 100 µM | GI50 (TK-10 renal) 3.58 µM | GI50 (RXF 393 renal) > 100 µM | GI50 (HOP-62 NSCLC) > 100 µM | GI50 ([…]-0 renal) > 100 µM | GI50 (SK-MEL-28 melanoma) > 100 µM | GI50 (SNB-19 CNS) > 100 µM | GI50 (HT29 colon) > 100 µM | GI50 (MDA-MB-435 melanoma) > 100 µM | GI50 (RPMI-8226 leukemia) 21 µM | GI50 (A498 renal) 4.18 µM | GI50 (IGROV1 ovarian) 0.918 µM | GI50 (HL-60(TB) leukemia) 65.1 µM | GI50 (OVCAR-4 ovarian) > 100 µM | GI50 (DU-145 prostate) > 100 µM | GI50 (LOX IMVI melanoma) > 100 µM | GI50 (COLO 205 colon) > 100 µM | GI50 (SN12C renal) 3.87 µM | GI50 (T-47D breast) 29.3 µM | GI50 (HCT-15 colon) > 100 µM | GI50 (HS 578T breast) > 100 µM | GI50 (PC-3 prostate) > 100 µM | GI50 (M14 melanoma) > 100 µM | GI50 (CCRF-CEM leukemia) 32 µM | GI50 (NCI-H460 NSCLC) > 100 µM | GI50 (MOLT-4 leukemia) 35.9 µM | GI50 (EKVX NSCLC) 16.5 µM | GI50 (SR leukemia) 0.519 µM | GI50 (BT-549 breast) 35.1 µM | GI50 (NCI/ADR-RES ovarian) 17.7 µM | GI50 (OVCAR-3 ovarian) 77.9 µM | GI50 (SNB-75 CNS) 51.2 µM | GI50 (HCC-2998 colon) > 100 µM | GI50 (SK-MEL-5 melanoma) > 100 µM | GI50 (ACHN renal) 4.99 µM | GI50 (UACC-62 melanoma) > 100 µM | GI50 (NCI-H226 lung) 1.18 µM | GI50 (MALME-3M melanoma) > 100 µM | GI50 (A549 NSCLC) > 100 µM | GI50 (UO-31 renal) 27.6 µM | GI50 (SK-OV-3 ovarian) 25.2 µM | GI50 (NCI-H522 lung) 1.44 µM | GI50 (SF-268 CNS) > 100 µM | GI50 (UACC-257 melanoma) > 100 µM | GI50 (SF-539 CNS) 34.7 µM | GI50 (MDA-MB-231 breast) > 100 µM | GI50 (KM12 colon) 0.621 µM | GI50 (SW-620 colon) > 100 µM
1.05 µM: TGI (HOP-92 NSCLC)
13.4 µM: TGI (SR leukemia)

From PubChem BioAssay (NCI)
